From patent publication US10736883B2, “Triazole furan compounds as agonists of the APJ receptor” (AMGEN INC., priority 2016, dated 2020) come the findings set out here.

SMILES strings stand for the structures.

The assay addresses APJ receptor (Homo sapiens (Human), UniProt P35414). Briefly: [35S]GTPγS binding assay on membranes from CHO cells stably expressing human APJ receptor. Format: biochemical. The following applies: membranes of CHO cells stably expressing human APJ receptor, means of several independent experiments, read-out: Activity hAPJ SPA EC50 IP. The gist of the method:
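Membranes from CHO cells stably expressing human APJ were incubated with 0.2 nM [35S]GTPγS and ligands for 90 min at RT in 20 mM HEPES pH 7.5, 5 mM MgCl2, 200 mM NaCl, 3 μM GDP, 0.1% BSA with WGA PS beads. Nonspecific binding was set with 100 μM GTPγS. EC50 came from non-linear regression.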

Chain of APJ receptor (P35414 whole entry): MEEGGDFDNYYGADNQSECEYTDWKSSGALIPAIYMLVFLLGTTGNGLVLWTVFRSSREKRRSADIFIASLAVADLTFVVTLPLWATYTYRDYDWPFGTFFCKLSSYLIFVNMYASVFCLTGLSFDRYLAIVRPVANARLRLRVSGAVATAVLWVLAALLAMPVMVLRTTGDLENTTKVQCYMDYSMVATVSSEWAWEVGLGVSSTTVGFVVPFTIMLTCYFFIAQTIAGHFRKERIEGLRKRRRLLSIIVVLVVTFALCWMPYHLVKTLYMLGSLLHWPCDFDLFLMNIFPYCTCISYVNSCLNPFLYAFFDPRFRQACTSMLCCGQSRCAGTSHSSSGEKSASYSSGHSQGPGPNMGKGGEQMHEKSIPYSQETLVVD

For the compound `COc1ncnc(OC)c1-n1c(NS(=O)(=O)[C@@H](C)[C@H](OC)c2ncc(C)cn2)nnc1-c1ccc(C)o1` [Example 3.0, (1R,2S)—N-(4-(4,6-dimethoxypyrimidin-5-yl)-5-(5-methylfuran-2-yl)-4H-1,2,4-triazol-3-yl)-1-methoxy-1-(5-methylpyrimidin-2-yl)propane-2-sulfonamide], the EC50 came out at 0.31 nM.

For the compound `COc1cccc(OC)c1-n1c(NS(=O)(=O)[C@@H]2CC[C@@H](O)[C@H](O)C2)nnc1-c1ccc(C)o1` (single isomer, unassigned) [Example 406.0], the EC50 amounted to 67 nM.

Regarding `COc1cccc(OC)c1-n1c(NS(=O)(=O)[C@H](C)[C@@H](O)c2ncn3ccccc23)nnc1-c1ccc(C)o1` (single isomer, unassigned) [Example 288.0, (1R,2S)—N-(4-(2,6-Dimethoxyphenyl)-5-(5-methyl-2-furanyl)-4H-1,2,4-triazol-3-yl)-1-hydroxy-1-imidazo[1,5-a]pyridin-1-yl-2-propanesulfonamide or (1S,2R)—N-(4-(2,6-dimethoxyphenyl)-5-(5-methyl-2-furanyl)-4H-1,2,4-triazol-3-yl)-1-hydroxy-1-imidazo[1,5-a]pyridin-1-yl-2-propanesulfonamide], the EC50 was 4.2 nM.

Consider `COc1ncnc(OC)c1-n1c(NS(=O)(=O)[C@@H](C)[C@H](C)c2ncc(F)cn2)nnc1-c1ccc(C)o1` [Example 393.0, (2S,3R)-N-(4-(4,6-dimethoxy-5-pyrimidinyl)-5-(5-methyl-2-furanyl)-4H-1,2,4-triazol-3-yl)-3-(5-fluoro-2-pyrimidinyl)-2-butanesulfonamide], for which the EC50 turned out to be 0.28 nM.

On to `COc1cccc(OC)c1-n1c(NS(=O)(=O)[C@@H](C)[C@@H](O)c2cc3ccccn3n2)nnc1-c1ccc(C)o1` (single isomer, unassigned) [Example 271.0, (1S,2S)—N-(4-(2,6-Dimethoxyphenyl)-5-(5-methyl-2-furanyl)-4H-1,2,4-triazol-3-yl)-1-hydroxy-1-pyrazolo[1,5-a]pyridin-2-yl-2-propanesulfonamide or (1R,2R)—N-(4-(2,6-dimethoxyphenyl)-5-(5-methyl-2-furanyl)-4H-1,2,4-triazol-3-yl)-1-hydroxy-1-pyrazolo[1,5-a]pyridin-2-yl-2-propanesulfonamide], for which the EC50 was determined as 0.62 nM.

Regarding `COc1cccc(OC)c1-n1c(NS(=O)(=O)CCN2Cc3ccccc3C2=O)nnc1-c1ccco1` [Example 2.0, N-(4-(2,6-Dimethoxyphenyl)-5-(2-furanyl)-4H-1,2,4-triazol-3-yl)-2-(1-oxo-1,3-dihydro-2H-isoindol-2-yl)ethanesulfonamide], the EC50 was 13000 nM.

Turning to `COc1cccc(OC)c1-n1c(NS(=O)(=O)[C@H](C)[C@@H](O)c2ncc(F)cn2)nnc1-c1ccc(C)o1` (racemic) [Example 96.0, (1R,2S)—N-(4-(2,6-Dimethoxyphenyl)-5-(5-methyl-2-furanyl)-4H-1,2,4-triazol-3-yl)-1-(5-fluoro-2-pyrimidinyl)-1-hydroxy-2-propanesulfonamide and (1S,2R)—N-(4-(2,6-dimethoxyphenyl)-5-(5-methyl-2-furanyl)-4H-1,2,4-triazol-3-yl)-1-(5-fluoro-2-pyrimidinyl)-1-hydroxy-2-propanesulfonamide], the EC50 was 0.34 nM.

`Cc1ccc(-c2nnc(NS(=O)(=O)[C@@H](C)Cc3ncc(F)cn3)n2C2CC2)o1` (racemic) [Example 319.0, (2R)—N-(4-Cyclopropyl-5-(5-methyl-2-furanyl)-4H-1,2,4-triazol-3-yl)-1-(5-fluoro-2-pyrimidinyl)-2-propanesulfonamide and (2S)—N-(4-cyclopropyl-5-(5-methyl-2-furanyl)-4H-1,2,4-triazol-3-yl)-1-(5-fluoro-2-pyrimidinyl)-2-propanesulfonamide]: the EC50 came to 610 nM.

As to `COc1cccc(OC)c1-n1c(NS(=O)(=O)[C@H]2C[C@@H](O)CN(c3ncc(F)cn3)C2)nnc1-c1ccc(C)o1` (single isomer, unassigned) [Example 323.0, (3S,5R)—N-(4-(2,6-Dimethoxyphenyl)-5-(5-methyl-2-furanyl)-4H-1,2,4-triazol-3-yl)-1-(5-fluoro-2-pyrimidinyl)-5-hydroxy-3-piperidinesulfonamide or (3R,5S)—N-(4-(2,6-dimethoxyphenyl)-5-(5-methyl-2-furanyl)-4H-1,2,4-triazol-3-yl)-1-(5-fluoro-2-pyrimidinyl)-5-hydroxy-3-piperidinesulfonamide], the EC50 worked out at 0.2 nM.

Take `COc1cccc(OC)c1-n1c(NS(=O)(=O)[C@@H](C)Cc2ncc(C)cn2)nnc1-c1ccc(C)o1` (single isomer, unassigned) [Example 16.0, (2S)—N-(4-(2,6-dimethoxyphenyl)-5-(5-methyl-2-furanyl)-4H-1,2,4-triazol-3-yl)-1-(5-methyl-2-pyrimidinyl)-2-propanesulfonamide or (2R)—N-(4-(2,6-dimethoxyphenyl)-5-(5-methyl-2-furanyl)-4H-1,2,4-triazol-3-yl)-1-(5-methyl-2-pyrimidinyl)-2-propanesulfonamide]: the EC50 came to 0.22 nM.

For the compound `COc1cccc(OC)c1-n1c(NS(=O)(=O)[C@H]2C[C@@H](O)CN(c3cncc(C#N)c3)C2)nnc1-c1ccc(C)o1` (single isomer, unassigned) [Example 325.0, (3S,5R)-1-(5-Cyano-3-pyridinyl)-N-(4-(2,6-dimethoxyphenyl)-5-(5-methyl-2-furanyl)-4H-1,2,4-triazol-3-yl)-5-hydroxy-3-piperidinesulfonamide or (3R,5S)-1-(5-cyano-3-pyridinyl)-N-(4-(2,6-dimethoxyphenyl)-5-(5-methyl-2-furanyl)-4H-1,2,4-triazol-3-yl)-5-hydroxy-3-piperidinesulfonamide], the EC50 was 0.23 nM.

With `COC[C@@H]1CCCC(=O)N1C[C@H](C)S(=O)(=O)Nc1nnc(-c2ccc(C)o2)n1-c1c(OC)cccc1OC` (racemic) [Example 151.0], the EC50 came out at 0.24 nM.

On to `COc1c(Br)cc(Br)c(OC)c1-n1c(NS(=O)(=O)[C@@H](C)[C@H](C)c2ncc(F)cn2)nnc1-c1ccc(C)o1` [Example 189.0, (2S,3R)—N-(4-(3,5-Dibromo-2,6-dimethoxyphenyl)-5-(5-methyl-2-furanyl)-4H-1,2,4-triazol-3-yl)-3-(5-fluoro-2-pyrimidinyl)-2-butanesulfonamide], for which the EC50 was 110 nM.

Turning to `COc1cccc(OC)c1-n1c(NS(=O)(=O)CCc2ncc(C)cn2)nnc1-c1ccco1` [Example 39.0, N-(4-(2,6-dimethoxyphenyl)-5-(2-furanyl)-4H-1,2,4-triazol-3-yl)-2-(5-methyl-2-pyrimidinyl)ethanesulfonamide], the EC50 was 6.6 nM.

As to `COc1cnc([C@H](O)[C@@H](C)S(=O)(=O)Nc2nnc(-c3ccc(C)o3)n2-c2c(OC)cccc2OC)cn1` (single isomer, unassigned) [Example 177.0, (1S,2R)—N-(4-(2,6-Dimethoxyphenyl)-5-(5-methyl-2-furanyl)-4H-1,2,4-triazol-3-yl)-1-hydroxy-1-(5-methoxy-2-pyrazinyl)-2-propanesulfonamide or (1R,2S)—N-(4-(2,6-dimethoxyphenyl)-5-(5-methyl-2-furanyl)-4H-1,2,4-triazol-3-yl)-1-hydroxy-1-(5-methoxy-2-pyrazinyl)-2-propanesulfonamide], the EC50 was 2.8 nM.

As to `COC[C@@H](Cc1ncc(F)cn1)S(=O)(=O)Nc1nnc(-c2ccc(C)o2)n1-c1c(OC)cccc1OC` (single isomer, unassigned) [Example 72.0, (2R)—N-(4-(2,6-Dimethoxyphenyl)-5-(5-methyl-2-furanyl)-4H-1,2,4-triazol-3-yl)-1-(5-fluoro-2-pyrimidinyl)-3-methoxy-2-propanesulfonamide or (2S)—N-(4-(2,6-dimethoxyphenyl)-5-(5-methyl-2-furanyl)-4H-1,2,4-triazol-3-yl)-1-(5-fluoro-2-pyrimidinyl)-3-methoxy-2-propanesulfonamide], the EC50 stood at 0.48 nM.

Take `COc1cccc(OC)c1-n1c(NS(=O)(=O)C[C@@](C)(F)c2ncc(F)cn2)nnc1-c1ccc(C)o1` (single isomer, unassigned) [Example 237.0, (2S)—N-(4-(2,6-Dimethoxyphenyl)-5-(5-methyl-2-furanyl)-4H-1,2,4-triazol-3-yl)-2-fluoro-2-(5-fluoro-2-pyrimidinyl)-1-propanesulfonamide or (2R)—N-(4-(2,6-dimethoxyphenyl)-5-(5-methyl-2-furanyl)-4H-1,2,4-triazol-3-yl)-2-fluoro-2-(5-fluoro-2-pyrimidinyl)-1-propanesulfonamide]: the EC50 came to 0.58 nM.

As for `COCC(COC)n1c(NS(=O)(=O)[C@@H](C)[C@H](OC)c2ncc(Cl)cn2)nnc1-c1ccc(C)o1` [Example 387.0, (1R,2S)-1-(5-chloro-2-pyrimidinyl)-N-(4-(1,3-dimethoxy-2-propanyl)-5-(5-methyl-2-furanyl)-4H-1,2,4-triazol-3-yl)-1-methoxy-2-propanesulfonamide], the EC50 is 2.1 nM.

For `COc1cccc(OC)c1-n1c(NS(=O)(=O)[C@@H](C)Cc2ncc(Cl)cc2C(N)=O)nnc1-c1ccco1` (single isomer, unassigned) [Example 17.0, 5-chloro-2-((2S)-2-((4-(2,6-dimethoxyphenyl)-5-(2-furanyl)-4H-1,2,4-triazol-3-yl)sulfamoyl)propyl)-3-pyridinecarboxamide or 5-chloro-2-((2R)-2-((4-(2,6-dimethoxyphenyl)-5-(2-furanyl)-4H-1,2,4-triazol-3-yl)sulfamoyl)propyl)-3-pyridinecarboxamide], the EC50 turned out to be 0.26 nM.

Take `COc1cccc(OC)c1-n1c(NS(=O)(=O)[C@H](C)Cc2ccc(C)nn2)nnc1-c1ccco1` (single isomer, unassigned) [Example 42.0, (2R)—N-(4-(2,6-dimethoxyphenyl)-5-(2-furanyl)-4H-1,2,4-triazol-3-yl)-1-(6-methyl-3-pyridazinyl)-2-propanesulfonamide or (2S)—N-(4-(2,6-dimethoxyphenyl)-5-(2-furanyl)-4H-1,2,4-triazol-3-yl)-1-(6-methyl-3-pyridazinyl)-2-propanesulfonamide]: the EC50 turned out to be 12 nM.
